What is called melting point is the temperature, or range, at which the solid turns liquid. One may read the pKi as the Ki on a negative log10 scale, so that one unit is a factor of ten.

One data set addresses human D2 receptor (Homo sapiens (Human), UniProt P14416). The data set is described as follows: Radioligand binding assay, [3H]-spiperone, human D2 receptor. The following applies: membranes of HEK293 EBNA cells expressing human D2; 0.7 nM [3H]-spiperone. An outline of the steps:
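Membranes from HEK293 EBNA cells transiently expressing human D2 were incubated 1 h at RT with ~0.7 nM [3H]-spiperone and ten compound concentrations (10 μM–0.1 nM) in Tris buffer with NaCl, MgCl2, KCl, CaCl2, EDTA, pH 7.4.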

The target in a further data set is human 5-HT2A receptor (Homo sapiens (Human), UniProt P28223). The data set is described as follows: Radioligand binding assay, [3H]-ketanserin, human 5-HT2A receptor. An outline of the steps:
(§1)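 Membranes from transiently transfected HEK293 EBNA cells were incubated 1 h at RT with ten compound concentrations (10 μM-0.1 nM) and radioligand: 0.5 nM [3H]-spiperone for D3 (Tris/NaCl/Mg/Ca buffer, pH 7.4) or 1.1 nM [3H]-ketanserin for 5-HT2A (Tris/MgCl2/EGTA, pH 7.4).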

In another data set the target is human D3 receptor (Homo sapiens (Human), UniProt P35462). The data set is described as follows: Radioligand binding assay, [3H]-spiperone, human D3 receptor. The following applies: membranes of HEK293 EBNA cells expressing human D3; 0.5 nM [3H]-spiperone. An outline of the steps:
as §1

The mark [1] stands for this setting: membranes of HEK293 EBNA cells expressing human 5-HT2A, 1.1 nM [3H]-ketanserin.

pKi: −log10 of the molar value. Where two headings read alike, the source gives them in different places.

Chain of human D2 receptor (P14416 whole entry): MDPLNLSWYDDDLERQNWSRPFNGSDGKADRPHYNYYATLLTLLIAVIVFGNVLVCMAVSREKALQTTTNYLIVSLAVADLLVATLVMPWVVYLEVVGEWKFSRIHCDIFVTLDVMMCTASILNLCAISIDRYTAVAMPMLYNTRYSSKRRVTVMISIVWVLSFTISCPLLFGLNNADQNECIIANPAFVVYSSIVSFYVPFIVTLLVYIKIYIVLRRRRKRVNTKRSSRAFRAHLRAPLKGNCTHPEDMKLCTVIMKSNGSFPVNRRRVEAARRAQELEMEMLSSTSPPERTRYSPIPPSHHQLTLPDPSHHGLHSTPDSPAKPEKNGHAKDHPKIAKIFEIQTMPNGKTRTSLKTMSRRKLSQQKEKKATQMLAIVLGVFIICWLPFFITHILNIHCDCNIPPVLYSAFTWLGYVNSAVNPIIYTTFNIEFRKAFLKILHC
Chain of human 5-HT2A receptor (P28223 whole entry): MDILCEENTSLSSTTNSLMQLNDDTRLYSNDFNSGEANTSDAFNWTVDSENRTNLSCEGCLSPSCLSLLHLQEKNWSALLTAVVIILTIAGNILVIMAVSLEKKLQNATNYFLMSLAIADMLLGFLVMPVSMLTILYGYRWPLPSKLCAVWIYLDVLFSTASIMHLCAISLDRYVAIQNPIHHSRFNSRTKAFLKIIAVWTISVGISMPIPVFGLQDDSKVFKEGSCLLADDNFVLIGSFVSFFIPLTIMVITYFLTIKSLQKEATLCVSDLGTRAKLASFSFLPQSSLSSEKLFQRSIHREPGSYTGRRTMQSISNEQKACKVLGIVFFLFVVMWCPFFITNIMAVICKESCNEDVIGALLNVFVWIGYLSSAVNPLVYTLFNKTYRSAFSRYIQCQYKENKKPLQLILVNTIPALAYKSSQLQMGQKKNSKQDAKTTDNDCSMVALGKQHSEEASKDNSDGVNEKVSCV
Chain of human D3 receptor (P35462 whole entry): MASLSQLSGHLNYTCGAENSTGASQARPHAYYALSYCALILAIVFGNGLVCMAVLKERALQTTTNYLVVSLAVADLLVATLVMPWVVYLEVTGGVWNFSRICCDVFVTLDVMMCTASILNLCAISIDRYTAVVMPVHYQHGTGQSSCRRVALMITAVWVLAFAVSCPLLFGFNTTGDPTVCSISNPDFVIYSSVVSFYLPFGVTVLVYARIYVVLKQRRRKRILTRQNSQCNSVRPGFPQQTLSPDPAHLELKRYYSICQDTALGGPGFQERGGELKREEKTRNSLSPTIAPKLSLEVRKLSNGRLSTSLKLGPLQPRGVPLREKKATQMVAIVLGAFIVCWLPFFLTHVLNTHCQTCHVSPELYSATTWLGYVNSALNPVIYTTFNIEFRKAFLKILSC

`CC[C@H](O)CC(=O)N[C@H]1CC[C@H](CCN2CCN(c3nccc4c3CCO4)CC2)CC1` [Example 89, (S)-3-Hydroxy-pentanoic acid trans-(4-{2-[4-(2,3-dihydro-furo[3,2-c]pyridin-4-yl)-piperazin-1-yl]-ethyl}-cyclohexyl)-amide] came in with a melting point of 158 °C. Moreover, the pKi at human D2 receptor is 6.05. For the same compound, the negative logarithm of the Ki (pKi) on human 5-HT2A receptor is 7.52. For the same compound, the pKi on human D3 receptor is 7.70.
`O=C(N[C@H]1CC[C@H](CCN2CCN(c3nccc4c3CCO4)CC2)CC1)c1ccccc1` [Example 44, trans-N-(4-{2-[4-(2,3-Dihydro-furo[3,2-c]pyridin-4-yl)-piperazin-1-yl]-ethyl}-cyclohexyl)-benzamide] registered a melting point of 207.5 °C. For the same compound, on human D2 receptor, the pKi is 6.32. In addition, the pKi at human 5-HT2A receptor (setting [1]) is 8.12. Moreover, on human D3 receptor, the pKi was 8.12.
As for `O=C(CCO)N[C@H]1CC[C@H](CCN2CCN(c3nccc4c3CCO4)CC2)CC1` [Example 41, trans-N-(4-{2-[4-(2,3-Dihydrofuro[3,2-c]pyridin-4-yl)-piperazin-1-yl]-ethyl}-cyclohexyl)-3-hydroxypropanamide], the melting point turned out to be 173 °C. For the same compound, the pKi on human D2 receptor was 6.13. On human 5-HT2A receptor, the pKi was 7.45. Also, the pKi on human D3 receptor is 7.94.
The compound `Cc1cc2c(c(N3CCN(CC[C@H]4CC[C@H](NC(=O)CC5CCOCC5)CC4)CC3)n1)CCO2` [Example 102, trans-N-(4-{2-[4-(6-Methyl-2,3-dihydro-furo[3,2-c]pyridin-4-yl)-piperazin-1-yl]-ethyl}-cyclohexyl)-2-(tetrahydro-pyran-4-yl)-acetamide] gave a melting point of 218.5 °C. For the same compound, the pKi at human D2 receptor is 5.71. The pKi on human 5-HT2A receptor (setting [1]) is 6.71. Moreover, the pKi at human D3 receptor is 7.73.
For `O=S(=O)(N[C@H]1CC[C@H](CCN2CCN(c3nccc4c3CCO4)CC2)CC1)c1ccc(F)cc1` [Example 50, trans-N-(4-{2-[4-(2,3-Dihydro-furo[3,2-c]pyridin-4-yl)-piperazin-1-yl]-ethyl}-cyclohexyl)-4-fluoro-benzenesulfonamide], in that order: 221 °C, 6.62, 7.40 and 8.17.
In the case of `CC(C)(C)c1ccc(C(=O)N[C@H]2CC[C@H](CCN3CCN(c4nccc5c4CCO5)CC3)CC2)cc1` [Example 131, trans-4-tert-Butyl-N-(4-{2-[4-(2,3-dihydro-furo[3,2-c]pyridin-4-yl)-piperazin-1-yl]-ethyl}-cyclohexyl)-benzamide], the melting point is 186.5 °C. Moreover, at human D2 receptor, the pKi is 5.78. In addition, at human 5-HT2A receptor, the negative logarithm of the Ki (pKi) was 7.18. Further, the pKi at human D3 receptor is 6.83.
`CCS(=O)(=O)N[C@H]1CC[C@H](CCN2CCN(c3nccc4c3CCO4)CC2)CC1` [Example 49, Ethanesulfonic acid trans-(4-{2-[4-(2,3-dihydro-furo[3,2-c]pyridin-4-yl)-piperazin-1-yl]-ethyl}-cyclohexyl)-amide] returned a melting point of 224 °C. Moreover, the pKi on human D2 receptor was 5.96. On human 5-HT2A receptor, the pKi is 7.75. Also, at human D3 receptor, the pKi is 7.66.
For `O=C(Cc1noc2ccccc12)N[C@H]1CC[C@H](CCN2CCN(c3nccc4c3CCO4)CC2)CC1` [Example 129, trans-2-Benzo[d] isoxazol-3-yl-N-(4-{2-[4-(2,3-dihydro-furo[3,2-c]pyridin-4-yl)-piperazin-1-yl]-ethyl}-cyclohexyl)-acetamide], in that order: 217.5 °C, 5.88, 7.56 and 7.83.
Take `COCCC(=O)N[C@H]1CC[C@H](CCN2CCN(c3ncc(C)c4c3CCO4)CC2)CC1` [Example 111, trans-3-Methoxy-N-(4-{2-[4-(7-methyl-2,3-dihydro-furo[3,2-c]pyridin-4-yl)-piperazin-1-yl]-ethyl}-cyclohexyl)-propionamide]: the melting point stood at 163.5 °C. Also, the pKi at human D2 receptor is 5.45. Moreover, at human 5-HT2A receptor (setting [1]), the pKi is 7.43. Further, on human D3 receptor, the pKi was 7.33.

Source of the values: patent publication US8586579B2, “Anellated pyridine compounds” (Hoffmann-La Roche Inc., priority 2010, dated 2013).
